In patent US9738668B2:

Columns and labels:
[1] = Solubility in solvents during LC method development; assay type: physicochemical
Description: During the development of a detection method for analytes 4, 8 and 15, multiple solvents were tested to find the optimal mobile phase. […] Acetonitrile was selected for better peak shape and compatibility with serum/brain protein precipitation. Compounds 8 and 15 were chosen as IS, because of their structural similarity. Selected reaction monitoring (SRM) acquisitions were used for sensitivity and extended dynamic range. The cone voltage and collision energy were optimized for 4, 8 and 15 and the IS by continuously infusing a mixture of the two. The optimum cone voltage was 30V.

[2] = Pharmacokinetic study and BBB penetration, LC-MS/MS of plasma and brain; assay type: in vivo, C57BL6 mice; settings: mice, intravenous 10 mg/kg
Description: Using the validated LCMS/MS method, blood and brain levels of 4, 8, and 15 were measured in male and female C57BL6 mice (8-10 week-old, weighing approximately 25-30 grams). The mice were housed in a room with controlled temperature (23±3° C.) and moisture level (55±15% relative humidity) and exposed to a controlled 12 hour light/12 hour dark cycle. They were allowed to access to food and water ad libitum. Mice were fasted for 6 hours with free access to water prior to the pharmacokinetic study. To determine the time course of compounds 4, 8, and 15 action in the brain, the plasma pharmacokinetics and BBB penetration capability of the inhibitors were investigated. In these experiments, compounds 4, 8, and 15 were administered to mice by intravenous injection at a dosage of 10 mg/kg. Blood and brain samples were collected from mouse at each time point (2, 5, 10, 30, 60, 120, 240, 360, 720, 1440, and 2880 minutes), a total of 11 time points. For plasma measurements, blood (approximately 500-800 μl) was collected via cardiac-puncture into tubes containing sodium heparin anti-coagulant. Plasma was separated via centrifugation (4° C., 3500 rpm, 10 minutes) and stored in −80° C. freezer. For qualitative confirmations of these compounds in CSF, samples were collected at 2 time points (240 and 1440 min) from five animals at each time point. At the time of measurement, frozen plasma samples were thawed at room temperature and vortexed thoroughly. The following quantities were estimated using non-compartmental calculations performed with WINNONLIN 5.2 (Pharsight, Sunnyvale, Calif.): the area under the plasma concentration-time curve during the period of observation (AUC0-τ); the area under the plasma concentration-time curve from zero to infinity (AUC0-∞); the maximum plasma concentration (Cmax); the time to reach Cmax (Tmax); and the half-life (t1/2).
The LC-MS/MS method described above was used for the determination of 4, 8 and 15 in plasma, brain, and CSF for pharmacokinetic study. Based on the initial concentration data, the pharmacokinetic parameters including the area under the plasma concentration-time curve during the period of observation (AUC0-t), the area under the plasma concentration-time curve from zero to infinity (AUC0-∞) the maximum plasma concentration (Cmax) the time to reach Cmax (Tmax) and the half-life (t1/2) are shown in Table 8.

[3] = tested on: brain mitochondria; assay: Mitochondria swelling assay in response to Ca2+; set-up: species or system mice
Description: Brain from mice without white matter was used for mitochondrial isolation. Brain was homogenized in 9 ml of ice-cold EB buffer (1 mmol EDTA, 1-6 mg/ml BSA) using a Dounce homogenizer until no particles could be seen. Homogenates were centrifuged at 1300×g for 5 minutes. Supernatant from this fraction was carefully laid on top of a 15% PERCOLL solution (10 ml) and then centrifuged at 16000 RPM for 10 minutes. The pellet was carefully mixed with 9 ml of mitochondrial buffer (4.098% D-mannitol, 2.56% sucrose, 0.034% K2HPO4, pH 7.3-7.4) and 200 μl of 1% digitonin. After 5 minutes incubation on ice, the mixture was centrifuged at 8000 RPM for 10 minutes. Mitochondrial pellet was washed once with mitochondrial buffer. Subsequently, the mitochondrial pellet was resuspended in 100 μl of mitochondrial buffer and was used for further experiments.
A proper amount of mitochondria was resuspended into 1 ml swelling assay buffer (150 mM KCl, 2 mM KH2PO4, 10 mM HEPES, pH 7.4) and energized by 1 mM glutamate and 1 mM malate. Calcium at varying concentrations was added into the assay buffer to trigger mitochondrial swelling. Mitochondrial permeability transition was determined by studying the rate of change in absorbance at 540 nm via a spectrophotometer.
Given that the Compounds 4, 8 and 15 could inhibit ABAD activity, it was determined whether these same compounds could decrease mitochondrial permeability transition pore (mPTP) formation.

[4] = tested on: SK-N-SH cells; assay: Mitochondrial cytochrome c oxidase (CcO) activity in Aβ-treated cells; assay type: cell-based
Description: SK-NSH cells were treated with 5 μM oligomer Aβ plus 1 μM of ABAD inhibitor; inhibitor alone; vehicle (VEH) without inhibitor; or Aβ alone. Forty-eight hour later, CcO activity (μmol protein mg^−1 min^−1) was measured in cell lysates.
The CcO activity was measured according to known methods (Du, et al. (2008) Nat. Med. 14:1097-105) with a cytochrome c oxidase kit (Sigma). In brief, SK-N-SH cells were incubated with ABAD inhibitor and oligomer Aβ for 48 hours. After washing the cells twice with PBS, the cells were collected and concentration was determined by the Bradford method. A suitable volume of cells and enzyme solution was added to 475 μl assay buffer. The reaction was triggered by the addition of 25 μl freshly prepared ferrocytochrome C substrate solution into the cuvette. Changes in OD550 nm were recorded immediately with an Amersham Biosciences ULTROSPECT 3100 pro spectrophotometer.
To assess the effect of ABAD inhibitor on Aft-induced mitochondrial respiratory function, CcO activity was determined.

[5] = tested on: SK-N-SH cells; assay: ATP levels in Aβ-treated cells; assay type: cell-based
Description: Forty-eight hour later, ATP levels (μmol mg^−1 protein) were measured in cell lysates.
To determine the effect of ABAD inhibitors on Aβ-induced impairment in energy metabolism, ATP levels were measured. […] ATP levels were measured in the cell lysates. […] Therefore, ABAD inhibitors can block mitochondrial dysfunction mediated by Aβ.

[6] = tested on: ABAD; assay type: biochemical
Description: Before the assay, all the assay components except SAAC were pre-incubated for 5 minutes, and the reaction started with the addition of SAAC into the reaction mix. The reaction was carried out for a total 6 minutes at room temperature under steady-state conditions, and the decrease of NADH absorbance at 340 nm was determined every 10 seconds. Kinetic data were analyzed by PRISM (Scitech, San Diego, Calif.) to determine IC50 values and Ki. One unit of enzyme activity was defined as that which converted 1.0 μmol of substrate to product per minute.

[7] = cited from earlier work
[8] = tested on: Aβ-ABAD interaction; settings: cited from earlier work

Question: With `COc1ccc2nc(N[C@@H](c3ccc(F)cc3)P(=O)(OC)OC)sc2c1` [Compound 15, Dimethyl ((4-fluorophenyl) ((6-methoxybenzo[d]thiazol-2-yl)amino)methyl) phosphonate] as the molecule, how does the “solubility in methanol or acetonitrile” value ([1]; methanol or acetonitrile) read?
Answer: Its value is “dissolved readily”.

Question: And the solubility in water ([1]; water)?
Answer: The solubility in water was “dissolved partially”.

Question: What about the “t1/2” value ([2]; Brain) of the same molecule?
Answer: Its value is 11.4 h.

Question: And the “t1/2” value ([2]; Plasma)?
Answer: The value was 6.1 h.

Question: What about the calcium-mediated mitochondrial swelling ([3]; with calcium) of the same molecule?
Answer: Its calcium-mediated mitochondrial swelling is “antagonized calcium-mediated mitochondrial swelling”.

Question: What about the “mitochondrial swelling without calcium” value ([3]; without calcium) of the same molecule?
Answer: The value was “did not affect mitochondrial swelling”.

Question: And the “CcO activity, inhibitor alone” value ([4]; 1 μM inhibitor without Aβ)?
Answer: Its value is “had no effect on CcO activity”.

Question: What about the CcO activity ([4]; 5 μM oligomer Aβ1-42 plus 1 μM inhibitor, 48 hours) of the same molecule?
Answer: Its CcO activity is “reversed the Aβ-mediated decrease of CcO activity”.

Question: What about the ATP levels ([5]; 5 μM Aβ1-42 plus 1 μM inhibitor) of the same molecule?
Answer: Its ATP levels is “rescued ATP levels”.

Question: What about the “ATP levels, inhibitor alone” value ([5]; inhibitor without Aβ) of the same molecule?
Answer: Its value is “comparable to cells treated with vehicle alone”.

Question: And the “inhibition of SAAC reduction by ABAD” value ([6]; at 10 μM)?
Answer: The value was “did not inhibit”.

Question: What about the “inhibitory effect on SAAC reduction by ABAD” value ([6]; at 100 or 400 μM) of the same molecule?
Answer: Its value is “slight inhibitory effect”.

Question: Which cell permeability [7] does the source give for `Nc1c(/N=N/c2ccc(-c3ccc(/N=N/c4cc(S(=O)(=O)O)c5ccccc5c4N)cc3)cc2)cc(S(=O)(=O)O)c2ccccc12` [Congo red] here?
Answer: Its cell permeability is “poor cell permeability”.

Question: What about the “inhibition of Aβ binding” value [8] of the same molecule?
Answer: Its value is 100%.

Question: For fentizole, which inhibitory activity [8] is on record?
Answer: The inhibitory activity was “exhibit inhibitory activity”.

Question: For thioflavin T, which “inhibition of Aβ binding” value [8] is on record?
Answer: Its value is about 20%.
